Reference: paper PMC6286779, “HLA-A2-Restricted Epitopes Identified from MTA1 Could Elicit Antigen-Specific Cytotoxic T Lymphocyte Response” (Journal of Immunology Research, 2018)

Columns and labels:
[1] = target: HLA-A*0201 molecules (Homo sapiens, UniProt P04439, D140Y/D185E/D98H/E176V/E277Q/G131W/G231S/I119V/I121R/I166T/I218V/L300P/L318F/N151K/N90K/P208A/P217A/Q86G/Q94H/R138H/R169H/T345S); experiment: T2 binding assay; conditions: T2 cells 1 × 10^6 cells/ml, peptide 50 μg/ml, 3 μg/ml β2-M, serum-free RPMI 1640, 18 h, 37°C; BB7.2 staining, flow cytometry; FI > 1.5 = high affinity
Procedure: The binding affinity of these peptides to HLA-A^∗0201 was evaluated according to our previous study. Briefly, T2 cells (1 × 10^6 cells/ml) were incubated with each peptide (50 μg/ml) and 3 μg/ml human β2-microglobulin (β2-M, Merck, Germany) in serum-free RPMI 1640 medium for 18 h at 37°C in a humidified atmosphere of 5% CO2. Then cells were washed twice and incubated with the anti-human HLA-A2 PE-Cyanine7 mAb, BB7.2 (eBioscience, USA) for 0.5 h at 4°C. Finally, cells were collected, washed, and analyzed using flow cytometry (FACSCalibur, Becton Dickinson, USA). The fluorescence index (FI) calculation was performed as follows: FI = [(mean fluorescence intensity (MFI) of the given peptide − background) − (MFI of the PBS control group − background)]/[(MFI of the PBS control group − background)]. The MFI value of cells untreated with peptides and antibodies was employed as background. Peptides with an FI factor of more than 1.5 were classed as high-affinity candidates.

[2] = target: T1, peptide/HLA-A*0201 complexes (Homo sapiens, UniProt P04439, D140Y/D185E/D98H/E176V/E277Q/G131W/G231S/I119V/I121R/I166T/I218V/L300P/L318F/N151K/N90K/P208A/P217A/Q86G/Q94H/R138H/R169H/T345S); experiment: T2 stabilization (stability) assay; format: binding; conditions: T2 cells, peptide 50 μg/ml, 18 h, then brefeldin A 10 μg/ml 1 h; read at 0, 2, 4, 6 h, 37°C; flow cytometry
T1 construct: endogenous in cells; host or cells: T2 lymphoblastic cell line (TAP-deficient)
Procedure: For the stability assay, each of the selected peptides (50 μg/ml) was incubated with T2 cells (1 × 10^6 cells/ml) for 18 h in serum-free RPMI 1640 medium supplemented with 3 μg/ml β2-M at 37°C. Thereafter, cells were washed twice and incubated with brefeldin A (10 μg/ml, eBiosciences, USA) for 1 h. Subsequently, the cells were washed and incubated for 0, 2, 4, and 6 h at 37°C. Cells were washed twice, stained with BB7.2 for 0.5 h at 4°C. Finally, cells were collected, washed, and analyzed by flow cytometry. Dissociation complex 50 (DC50) was defined as time (t) required for the loss of 50% of the HLA-A^∗0201/peptide complexes stabilized at 0 h.

Sequence | FI (fluorescence index) [1] | DC50: time required for the loss of 50% of the HLA-A*0201/peptide complexes stabilized at 0 h [2]
TLLNETESL [Peptide P129] | 1.28 | >6 h
YLIRRIEEL [Peptide P22] | 2.08 | >2 h
